From ChEMBL document CHEMBL2401728, “An unexpected Dimroth rearrangement leading to annelated thieno[3,2-d][1,2,3]triazolo[1,5-a]pyrimidines with potent antitumor activity” (Eur J Med Chem, 2013)

Legend:
Assay type in all cases: functional
MDA-MB-435 [1] = experiment: Cytotoxicity against human MDA-MB-435 cells assessed as cellular growth at 0.01 uM after 48 hrs by SRB assay relative to control
NCI-H226 = experiment: Cytotoxicity against human NCI-H226 cells assessed as cellular growth at 0.01 uM after 48 hrs by SRB assay relative to control
SR = experiment: Cytotoxicity against human SR cells assessed as cellular growth at 0.01 uM after 48 hrs by SRB assay relative to control
UACC-62 = experiment: Cytotoxicity against human UACC62 cells assessed as cellular growth at 100 uM after 48 hrs by SRB assay relative to control
MDA-MB-435 [2] = experiment: Cytotoxicity against human MDA-MB-435 cells assessed as cellular growth at 100 uM after 48 hrs by SRB assay relative to control
SF-268 = experiment: Cytotoxicity against human SF268 cells assessed as cellular growth at 100 uM after 48 hrs by SRB assay relative to control
KM12 = experiment: Cytotoxicity against human KM12 cells assessed as cellular growth at 100 uM after 48 hrs by SRB assay relative to control
NCI-H522 = experiment: Cytotoxicity against human NCI-H522 cells assessed as cellular growth at 100 uM after 48 hrs by SRB assay relative to control
A549 = experiment: Cytotoxicity against human A549 cells assessed as cellular growth at 100 uM after 48 hrs by SRB assay relative to control
SK-MEL-28 = experiment: Cytotoxicity against human SK-MEL-28 cells assessed as cellular growth at 10 uM after 48 hrs by SRB assay relative to control
HCT-116 [3] = experiment: Cytotoxicity against human HCT116 cells assessed as cellular growth at 10 uM after 48 hrs by SRB assay relative to control
HOP-62 [4] = experiment: Cytotoxicity against human HOP62 cells assessed as cellular growth at 10 uM after 48 hrs by SRB assay relative to control
IGROV-1 [5] = experiment: Cytotoxicity against human IGROV1 cells at 10 uM after 48 hrs by SRB assay
786-0 [6] = experiment: Cytotoxicity against human 786-0 cells assessed as cellular growth at 1 uM after 48 hrs by SRB assay relative to control
OVCAR-5 [7] = experiment: Cytotoxicity against human OVCAR5 cells assessed as cellular growth at 1 uM after 48 hrs by SRB assay relative to control
OVCAR-4 [8] = experiment: Cytotoxicity against human OVCAR4 cells assessed as cellular growth at 1 uM after 48 hrs by SRB assay relative to control
Malme-3M = experiment: Cytotoxicity against human MALME-3M cells assessed as cellular growth at 1 uM after 48 hrs by SRB assay relative to control
HCT-116 [9] = experiment: Cytotoxicity against human HCT116 cells assessed as cellular growth at 1 uM after 48 hrs by SRB assay relative to control
NCI-H460 = experiment: Cytotoxicity against human NCI-H460 cells assessed as cellular growth at 1 uM after 48 hrs by SRB assay relative to control
HOP-92 [10] = experiment: Cytotoxicity against human HOP92 cells assessed as cellular growth at 1 uM after 48 hrs by SRB assay relative to control
CCRF-CEM = experiment: Cytotoxicity against human CCRF-CEM cells assessed as cellular growth at 1 uM after 48 hrs by SRB assay relative to control
T47D = experiment: Cytotoxicity against human T47D cells after 48 hrs by SRB assay
TK-10 = experiment: Cytotoxicity against human TK10 cells after 48 hrs by SRB assay; conditions: TK-10, 48 h
RXF 393 = experiment: Cytotoxicity against human RXF393 cells after 48 hrs by SRB assay; conditions: RXF 393, 48 h
OVCAR-5 [11] = experiment: Cytotoxicity against human OVCAR5 cells after 48 hrs by SRB assay; conditions: OVCAR-5, 48 h
IGROV-1 [12] = experiment: Cytotoxicity against human IGROV1 cells after 48 hrs by SRB assay; conditions: IGROV-1, 48 h
SNB-75 = experiment: Cytotoxicity against human SNB75 cells after 48 hrs by SRB assay; conditions: SNB-75, 48 h
NCI-H322M = experiment: Cytotoxicity against human NCI-H322M cells after 48 hrs by SRB assay
HOP-92 [13] = experiment: Cytotoxicity against human HOP92 cells after 48 hrs by SRB assay; conditions: HOP-92, 48 h
K562 = experiment: Cytotoxicity against human K562 cells after 48 hrs by SRB assay; conditions: K562, 48 h
MDA-MB-231 = experiment: Cytotoxicity against human MDA-MB-231 cells assessed as cellular growth at 0.1 uM after 48 hrs by SRB assay relative to control
OVCAR-4 [14] = experiment: Cytotoxicity against human OVCAR4 cells assessed as cellular growth at 0.1 uM after 48 hrs by SRB assay relative to control
HOP-62 [15] = experiment: Cytotoxicity against human HOP62 cells assessed as cellular growth at 0.1 uM after 48 hrs by SRB assay relative to control
786-0 [16] = experiment: Cytotoxicity against human 786-0 cells assessed as cellular growth at 0.01 uM after 48 hrs by SRB assay relative to control
[17] = read-out: LC50 (the source's name)
[18] = read-out: pLC50 (the source's name) (converted)

`O=C(CCCn1c2c(sc3ccccc32)c(=O)n2nnc(-c3ccccc3)c12)NCCc1c[nH]cn1` gave an Activity (MDA-MB-435 [1]) of 117%, an Activity (NCI-H226) of 97% and an Activity (SR) of 108%. The Activity (UACC-62) was -100%, the Activity (MDA-MB-435 [2]) was -76% and the Activity (SF-268) was -69%. For the same molecule, the Activity (KM12) was -100%, the Activity (NCI-H522) was -25% and the Activity (A549) was -2%. For the same molecule, the Activity (SK-MEL-28) was -92%, the Activity (HCT-116 [3]) was -100% and the Activity (HOP-62 [4]) was -79%. The Activity (IGROV-1 [5]) was -89%, the Activity (786-0 [6]) was 53% and the Activity (OVCAR-5 [7]) was 14%. For the same molecule, the Activity (OVCAR-4 [8]) was 91%, the Activity (Malme-3M) was 81% and the Activity (HCT-116 [9]) was -27%. The Activity (NCI-H460) was 75%, the Activity (HOP-92 [10]) was 93% and the Activity (CCRF-CEM) was -28%. For the same molecule, the GI50 (T47D; read-out: GI50) was 1270 nM, the CC50 (T47D; [17]) was 30.6 µM and the TGI (T47D; read-out: TGI) was 6.37 µM. For the same molecule, the GI50 (T47D; read-out: pGI50 (converted)) was 1260 nM, the CC50 (T47D; [18]) was 30.9 µM and the TGI (T47D; read-out: pTGI (converted)) was 6.31 µM. For the same molecule, the GI50 (TK-10; read-out: GI50) was 2170 nM, the CC50 (TK-10; [17]) was 6.42 µM and the TGI (TK-10; read-out: TGI) was 3.73 µM. The GI50 (TK-10; read-out: pGI50 (converted)) was 2190 nM, the CC50 (TK-10; [18]) was 6.46 µM and the TGI (TK-10; read-out: pTGI (converted)) was 3.72 µM. The GI50 (RXF 393; read-out: GI50) was 2200 nM, the CC50 (RXF 393; [17]) was 7.77 µM and the TGI (RXF 393; read-out: TGI) was 4.14 µM. For the same molecule, the GI50 (RXF 393; read-out: pGI50 (converted)) was 2190 nM, the CC50 (RXF 393; [18]) was 7.76 µM and the TGI (RXF 393; read-out: pTGI (converted)) was 4.17 µM. It also gave a GI50 (OVCAR-5 [11]; read-out: GI50) of 56.5 nM, a CC50 (OVCAR-5 [11]; [17]) of 4.06 µM and a TGI (OVCAR-5 [11]; read-out: TGI) of 1360 nM. It also gave a GI50 (OVCAR-5 [11]; read-out: pGI50 (converted)) of 56.2 nM, a CC50 (OVCAR-5 [11]; [18]) of 4.07 µM and a TGI (OVCAR-5 [11]; read-out: pTGI (converted)) of 1350 nM. The GI50 (IGROV-1 [12]; read-out: GI50) was 99.7 nM, the CC50 (IGROV-1 [12]; [17]) was 5.04 µM and the TGI (IGROV-1 [12]; read-out: TGI) was 2070 nM. The GI50 (IGROV-1 [12]; read-out: pGI50 (converted)) was 100 nM, the CC50 (IGROV-1 [12]; [18]) was 5.01 µM and the TGI (IGROV-1 [12]; read-out: pTGI (converted)) was 2090 nM. It also gave a GI50 (SNB-75; read-out: GI50) of 1950 nM, a CC50 (SNB-75; [17]) of 6.32 µM and a TGI (SNB-75; read-out: TGI) of 3.51 µM. For the same molecule, the GI50 (SNB-75; read-out: pGI50 (converted)) was 1950 nM, the CC50 (SNB-75; [18]) was 6.31 µM and the TGI (SNB-75; read-out: pTGI (converted)) was 3.55 µM. It also gave a GI50 (NCI-H322M; read-out: GI50) of 2750 nM, a CC50 (NCI-H322M; [17]) of 39.2 µM and a TGI (NCI-H322M; read-out: TGI) of 9.8 µM. It also gave a GI50 (NCI-H322M; read-out: pGI50 (converted)) of 2750 nM, a CC50 (NCI-H322M; [18]) of 38.9 µM and a TGI (NCI-H322M; read-out: pTGI (converted)) of 9.77 µM. For the same molecule, the GI50 (HOP-92 [13]; read-out: GI50) was 4.06 µM, the CC50 (HOP-92 [13]; [17]) was > 100 µM and the TGI (HOP-92 [13]; read-out: TGI) was 20.5 µM. The GI50 (HOP-92 [13]; read-out: pGI50 (converted)) was 4.07 µM, the CC50 (HOP-92 [13]; [18]) was > 100 µM and the TGI (HOP-92 [13]; read-out: pTGI (converted)) was 20.4 µM. For the same molecule, the GI50 (K562; read-out: GI50) was 22.7 nM, the CC50 (K562; [17]) was 5.18 µM and the TGI (K562; read-out: TGI) was 1020 nM. For the same molecule, the GI50 (K562; read-out: pGI50 (converted)) was 22.9 nM, the CC50 (K562; [18]) was 5.13 µM and the TGI (K562; read-out: pTGI (converted)) was 1020 nM. For the same molecule, the Activity (MDA-MB-231) was 109%, the Activity (OVCAR-4 [14]) was 100% and the Activity (HOP-62 [15]) was 80%. For the same molecule, the Activity (786-0 [16]) was 98%.
